Several values for one entry are separate records, joined by “and”; a condition that tells them apart may be missing. Equal values may be shown once. One block for each molecule: values may come before it.
Assays:
CREBBP = molecular target: T1, CREBBP (Homo sapiens, UniProt Q92793); experiment: DSF Tm shift assay, CREBBP; assay type: binding; settings: 10 μM, single measurement
T1 construct: representative bromodomains (PCAF, BRD4(1), CREBBP, TRIM33B) from other subfamilies using DSF; made in house
Description: (§1) Protein Expression and Purification.
(§2) Proteins were cloned, expressed, and purified as previously described.1 […]
(§3) Bromodomain DSF Tm assays were performed using a Mx3005p real-time PCR machine (Agilent) and low profile 96-well PCR plates (AB-0700, Life Technologies). Protein was buffered in 10 mM HEPES, pH 7.5, 500 mM NaCl and assayed at a concentration of 2 µM with 10 µM inhibitor concentration and 1:1000 SyproOrange (Invitrogen). Excitation and emission filters were set to 465 and 590 nm respectively. The temperature was raised by 3 °C per 1 min from 25–95 °C, and fluorescence readers were taken at each interval. Data analysis was carried out as described previously.2
(§4) AlphaScreen Displacement Assay.
(§5) AlphaScreen assays were based on a reported protocol, with minor variations.3 In place of a biotinylated peptide, a biotinylated ligand was used at 25 nM final concentration.
(§6) Isothermal Calorimetry Experiments.
(§7) Calorimetric experiments were performed on a VP-ITC micro-calorimeter (MicroCalTM, LLC Northampton, MA). Protein solutions were buffer exchanged by dialysis into buffer 20 mM Hepes pH 7.5, 150 mM NaCl, and 0.5 mM TCEP. All measurements were carried out at 293.15 K while stirring at 286 rpm. The micro syringe was loaded with protein solutions ranging from […]

PCAF = molecular target: T2, PCAF (Homo sapiens, UniProt Q92831); experiment: DSF Tm shift assay, PCAF; assay type: binding; settings: 10 μM, single measurement
T2 construct: representative bromodomains (PCAF, BRD4(1), CREBBP, TRIM33B) from other subfamilies using DSF; made in house
T2 sequence (Q92831 723-827 limits assumed): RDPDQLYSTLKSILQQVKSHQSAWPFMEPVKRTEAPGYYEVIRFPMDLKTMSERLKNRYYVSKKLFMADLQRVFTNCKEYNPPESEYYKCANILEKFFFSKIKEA
Description: as §1, §2, §3, §4, §5, §6, §7

TRIM33B = molecular target: T3, TRIM33B (Homo sapiens, UniProt Q9UPN9); experiment: DSF Tm shift assay, TRIM33B; assay type: binding; settings: 10 μM, single measurement
T3 construct: representative bromodomains (PCAF, BRD4(1), CREBBP, TRIM33B) from other subfamilies using DSF; made in house
T3 sequence (Q9UPN9 957-1063 isoform Q9UPN9-2 limits assumed): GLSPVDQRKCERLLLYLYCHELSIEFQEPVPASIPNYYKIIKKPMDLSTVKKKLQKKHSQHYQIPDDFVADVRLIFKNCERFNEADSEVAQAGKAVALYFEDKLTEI
Description: as §1, §2, §3, §4, §5, §6, §7

Solubility (qualitative) = assay type: physicochemical; settings: for DMSO and aqueous solubility: chlorinated derivatives
PB1(5) [1] = molecular target: T4, PB1(5) (Homo sapiens, UniProt Q86U86); experiment: DSF Tm shift assay, PB1(5) bromodomain; assay type: binding; settings: for PB1(5) Tm (Supplementary Table 2): average of three replicates and standard deviation; for PB1(5) ΔTm / ΔTm at 10 µM: 10 μM inhibitor, average of three replicates
T4 construct: the fifth bromodomain of PB1 (PB1(5)); made in house

BRD9A = molecular target: T5, BRD9A (Homo sapiens, UniProt Q9H8M2); experiment: DSF Tm shift assay, BRD9A; assay type: binding; settings: single measurement
T5 construct: Bromodomain DSF Tm assays were performed; made in house
T5 sequence (Q9H8M2 136-240 limits assumed): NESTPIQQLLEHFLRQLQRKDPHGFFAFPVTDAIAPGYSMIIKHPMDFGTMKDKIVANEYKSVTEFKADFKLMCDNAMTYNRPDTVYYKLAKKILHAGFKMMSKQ
Description: as §1, §2, §3, §4, §5, §6, §7

BRPF1B = molecular target: T6, BRPF1B (Homo sapiens, UniProt P55201); experiment: DSF Tm shift assay, BRPF1B; assay type: binding; settings: single measurement
T6 construct: Bromodomain DSF Tm assays were performed; made in house
T6 sequence (P55201 628-732 limits assumed): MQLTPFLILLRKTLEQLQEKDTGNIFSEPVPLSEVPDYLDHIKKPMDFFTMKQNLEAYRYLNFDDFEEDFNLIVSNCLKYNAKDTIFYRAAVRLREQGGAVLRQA
Description: as §1, §2, §3, §4, §5, §6, §7

CECR2A = molecular target: T7, CECR2A (Homo sapiens, UniProt Q9BXF3); experiment: DSF Tm shift assay, CECR2A; assay type: binding; settings: single measurement
T7 construct: Bromodomain DSF Tm assays were performed; made in house
Description: as §1, §2, §3, §4, §5, §6, §7

PB1(5) [2] = molecular target: T4, PB1(5); experiment: Isothermal calorimetry (ITC), PB1(5) bromodomain; assay type: binding; settings: for K × 10^6 (M^–1): 293.15 K
BRD4(1) = molecular target: T8, BRD4(1) (Homo sapiens, UniProt O60885); experiment: DSF Tm shift assay, BRD4(1); assay type: binding; settings: 10 μM, single measurement
T8 construct: representative bromodomains (PCAF, BRD4(1), CREBBP, TRIM33B) from other subfamilies using DSF; made in house
Description: as §1, §2, §3, §4, §5, §6, §7

SMARCA2B = molecular target: T9, SMARCA2B (Homo sapiens, UniProt P51531); experiment: Isothermal calorimetry (ITC), SMARCA2B; assay type: binding
T9 construct: made in house
Description: as §1, §2, §3, §4, §5, §6, §7
for the cell. All injections for PB1(5) were performed using an initial injection of 2 μl followed by 30 injections of 8 μl with a duration of 16 sec per injection and a spacing of 240 sec between injection. Injections for SMARCA2B and SMARCA4 were performed using an initial injection of 2 μl followed by 35 injections of 8 μl with a duration of 16 sec per injection and a spacing of 240 sec between injection.The data were analyzed with the MicroCal ORIGIN software package employing a single binding site model. The first data point was excluded from the analysis.
Thermodynamic parameters were calculated (ΔG = ΔH - TΔS = -RTlnKB where ΔG, ΔH and ΔS are the changes in free energy, enthalpy and entropy of binding, respectively).
Fluorescence Recovery After Photobleaching (FRAP)
FRAP studies were performed essentially as described. In brief, U2OS cells were transfected (Fugene HD; Roche) with mammalian over-expression constructs encoding GFP fused to the N-terminus of full length wild-type or mutant SMARCA2 (1). The imaging system consisted of a Zeiss LSM 710 laser-scanning and control system (Zeiss) coupled to an inverted Zeiss Axio Observer.Z1 microscope equipped with a high-numerical-aperture (N. A. 1.3) 40 x oil immersion objective (Zeiss). […] FRAP and GFP fluorescence imaging were both carried out with an argon-ion laser (488 nm) and with a PMT detector set to detect fluorescence between 500-550 nm. […] The image datasets and fluorescence recovery data were exported from ZEN 2009, the microscope control

SMARCA4 = SMARCA4 (Homo sapiens, UniProt P51532); experiment: Isothermal calorimetry (ITC), SMARCA4; assay type: binding
Sequence of SMARCA4 (P51532 1453-1564 limits assumed): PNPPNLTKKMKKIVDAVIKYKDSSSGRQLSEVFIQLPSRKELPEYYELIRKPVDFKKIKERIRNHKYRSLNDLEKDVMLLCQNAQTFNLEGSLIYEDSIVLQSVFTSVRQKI

T9 sequence (P51531 1373-1493 isoform P51531-2 limits assumed): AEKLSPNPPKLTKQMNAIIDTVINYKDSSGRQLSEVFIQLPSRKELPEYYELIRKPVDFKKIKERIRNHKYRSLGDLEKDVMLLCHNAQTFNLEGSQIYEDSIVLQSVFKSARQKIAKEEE
T4 sequence (Q86U86 653-774): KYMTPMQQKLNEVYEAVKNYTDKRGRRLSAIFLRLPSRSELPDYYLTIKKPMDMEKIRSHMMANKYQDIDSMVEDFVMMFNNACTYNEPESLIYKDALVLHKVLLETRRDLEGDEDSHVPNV
T1 sequence (Q92793 1085-1192 limits assumed): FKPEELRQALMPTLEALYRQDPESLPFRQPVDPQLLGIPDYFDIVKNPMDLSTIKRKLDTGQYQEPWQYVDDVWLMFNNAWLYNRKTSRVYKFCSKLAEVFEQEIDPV
T7 sequence (Q9BXF3 434-538 limits assumed): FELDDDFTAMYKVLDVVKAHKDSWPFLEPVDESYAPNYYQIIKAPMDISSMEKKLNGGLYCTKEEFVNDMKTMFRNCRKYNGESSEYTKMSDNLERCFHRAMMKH

SMILES: O=c1nc2n(c3ccccc13)CC/C2=C\c1ccoc1 [Compound 1]
aqueous solubility (Solubility (qualitative)): poor

SMILES: CN1CCN(/C=C2\CCn3c2nc(=O)c2ccccc23)CC1 [Compound 12]
PB1(5) Tm (Supplementary Table 2) (PB1(5) [1]): 5.8 ± 0.1 °C
BRD9A Tm (BRD9A): 0.5 °C
BRPF1B Tm (BRPF1B): 0.2 °C
CECR2A Tm (CECR2A): 0.3 °C

SMILES: O=c1nc2n(c3cccc(Br)c13)CCC2 [Compound 19c]
ΔTm at 10 µM (PB1(5) [1]): 3.1 ± 0.3 °C

SMILES: CN1CCN(/C=C2\CCn3c2nc(=O)c2c(Cl)cccc23)CC1 [Compound 26]
ΔG (PB1(5) [2]): -9.272 kcal/mol
K × 10^6 (M^–1) (PB1(5) [2]): 8.09 × 10^6 M^–1
K×10^6 (M-1) (SMARCA2B): 3.81 ×10^6 M-1
TΔS (SMARCA2B): 5.508 kcal/mol
ΔG (SMARCA2B): -8.810 kcal/mol
ΔH (SMARCA2B): -3.302 kcal/mol
K×10^6 (M-1) (SMARCA4): 2.40 ×10^6 M-1
TΔS (SMARCA4): 4.835 kcal/mol
ΔG (SMARCA4): -4.838 kcal/mol
ΔH (SMARCA4): -3.727 kcal/mol
DMSO and aqueous solubility (Solubility (qualitative)): greatly improved

SMILES: CCN1CCN(/C=C2\CCn3c2nc(=O)c2c(Cl)cccc23)CC1 [Compound 27]
TΔS (PB1(5) [2]): 4.7 kcal/mol
ΔG (PB1(5) [2]): -9.198 kcal/mol
K × 10^6 (M^–1) (PB1(5) [2]): 7.05 × 10^6 M^–1
DMSO and aqueous solubility (Solubility (qualitative)): greatly improved

SMILES: CCCN(/C=C1\CCn2c1nc(=O)c1ccccc12)CCC [Compound 7, (E)-3-((Dipropylamino)methylene)-2,3-dihydropyrrolo[1,2-a]quinazolin-5(1H)-one]
PB1(5) ΔTm (PB1(5) [1]): moderate activity

SMILES: O=c1nc2n(c3cccc(O)c13)CCC2 [Compound 21c]
ΔTm at 10 µM (PB1(5) [1]): -0.1 ± 0.4 °C

Further lines, results first:

CREBBP Tm (CREBBP): 0.1 °C
PCAF Tm (PCAF): 0.8 °C
TRIM33B Tm (TRIM33B): 0.9 °C
SMILES: O=c1nc2n(c3cccc(Cl)c13)CC/C2=C\N1CCOCC1 [Compound 25]

PB1(5) ΔTm (PB1(5) [1]): no interaction
ΔTm at 10 µM (PB1(5) [1]): 0 °C
SMILES: O=c1nc2n(c3ccccc13)CCC2 [Compound 4, 2,3-Dihydropyrrolo[1,2-a]quinazolin-5(1H)-one]

PB1(5) Tm (Supplementary Table 2) (PB1(5) [1]): 5.0 ± 0.5 °C
BRD9A Tm (BRD9A): 0.8 °C
BRPF1B Tm (BRPF1B): 0.0 °C
CECR2A Tm (CECR2A): 0.1 °C
SMILES: CCN1CCN(/C=C2\CCn3c2nc(=O)c2ccccc23)CC1 [Compound 13]

TΔS (PB1(5) [2]): 3.018 kcal/mol and 3.0 kcal/mol
ΔG (PB1(5) [2]): -9.195 kcal/mol
K × 10^6 (M^–1) (PB1(5) [2]): 7.29 × 10^6 M^–1
BRD4(1) Tm (BRD4(1)): 0.3 °C
CREBBP Tm (CREBBP): 0.0 °C
PCAF Tm (PCAF): 0.2 °C
TRIM33B Tm (TRIM33B): 0.2 °C
SMILES: CN(C)/C=C1\CCn2c1nc(=O)c1c(Cl)cccc12 [Compound 18]

ΔTm at 10 µM (PB1(5) [1]): 0 °C
SMILES: Cc1cccc2c1c(=O)nc1n2CCC1 [Compound 16c]

Reference: paper PMC4920105, “Identification and Development of 2,3-Dihydropyrrolo[1,2-a]quinazolin-5(1H)-one Inhibitors Targeting Bromodomains within the Switch/Sucrose Nonfermenting Complex” (Journal of Medicinal Chemistry, 2016)
